# Laboratory results reported in patent US20230322767A1, “ARYL SUBSTITUTED PYRROLO-PYRIDINONES AND THERAPEUTIC USES THEREOF” (Bayer Aktiengesellschaft, priority 2020, published 2023).
# Tests used:
# Assay type in all cases: biochemical
# CSNK1A1 = CSNK1A1 (Homo sapiens (Human), UniProt P48729); assay: CSNK1A1 Assay 2 (ADP-Glo, 1 μM ATP); details: median, read-out: CSNK1A1 Assay 2 IC50 [mol/l] (median)
# Procedure, shortened: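 Enzyme (~0.0375 ng/μL) preincubated 15 min at 22° C with compound in HEPES pH 7.5 buffer, then reacted with 1 μM ATP and biotin-Ahx-KRRRAL-pS-VASLPGL peptide. ADP product measured by ADP-Glo luminescence after 1 h ATP depletion and 1 h detection at 22° C.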
# CSNK1D = CSNK1D (Homo sapiens (Human), UniProt P48730); assay: CSNK1D Assay (ADP-Glo, 1 μM ATP); details: median, read-out: CSNK1D IC50 [mol/l] (median)
# Chain of CSNK1D (P48730 whole entry): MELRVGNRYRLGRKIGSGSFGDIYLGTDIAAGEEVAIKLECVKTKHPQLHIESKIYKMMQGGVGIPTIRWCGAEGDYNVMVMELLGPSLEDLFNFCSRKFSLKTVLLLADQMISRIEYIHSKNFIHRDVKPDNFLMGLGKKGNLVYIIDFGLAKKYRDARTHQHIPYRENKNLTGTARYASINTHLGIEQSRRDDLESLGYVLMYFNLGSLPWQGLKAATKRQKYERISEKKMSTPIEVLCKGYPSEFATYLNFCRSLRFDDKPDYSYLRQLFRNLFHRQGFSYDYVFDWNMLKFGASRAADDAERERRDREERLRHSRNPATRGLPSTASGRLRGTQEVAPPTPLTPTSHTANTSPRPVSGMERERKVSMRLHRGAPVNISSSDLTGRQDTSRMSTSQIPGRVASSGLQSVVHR
# Procedure, shortened: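 Enzyme preincubated with compound 15 min at 22° C in 50 mM HEPES pH 7.5 buffer with 10 mM MgCl2, 1 mM DTT; kinase reaction run at 1 μM ATP with biotinylated peptide substrate. ADP formed was detected by ADP-Glo luminescence as the measure of activity.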
# [1] = biological target: wild-type Epidermal Growth Factor Receptor (EGFR) (Homo sapiens (Human), UniProt P00533); assay: WT-EGFR Kinase Assay (TR-FRET, 2 mM ATP); details: EGFR Wildtyp 2 mM ATP IC50 [mol/l] (median), median or individual measurements
# Chain of wild-type Epidermal Growth Factor Receptor (EGFR) (P00533 669-1210): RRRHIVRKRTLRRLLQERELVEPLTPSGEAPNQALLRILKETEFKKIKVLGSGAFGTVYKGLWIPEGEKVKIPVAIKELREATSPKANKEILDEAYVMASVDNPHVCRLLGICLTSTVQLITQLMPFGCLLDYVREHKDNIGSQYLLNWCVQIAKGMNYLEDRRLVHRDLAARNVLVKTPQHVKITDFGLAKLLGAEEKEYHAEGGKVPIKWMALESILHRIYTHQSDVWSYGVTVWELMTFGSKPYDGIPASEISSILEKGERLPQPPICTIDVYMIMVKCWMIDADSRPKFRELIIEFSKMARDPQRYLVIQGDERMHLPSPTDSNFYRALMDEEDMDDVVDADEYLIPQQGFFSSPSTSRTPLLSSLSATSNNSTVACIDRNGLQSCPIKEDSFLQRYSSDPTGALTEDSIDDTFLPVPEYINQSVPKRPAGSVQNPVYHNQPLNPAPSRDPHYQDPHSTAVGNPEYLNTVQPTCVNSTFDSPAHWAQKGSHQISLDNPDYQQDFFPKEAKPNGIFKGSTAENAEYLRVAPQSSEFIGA
# Procedure, shortened: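 GST-tagged human EGFR (R669–A1210, Sf9-expressed) preincubated 15 min at 22° C with compound in pH 7.0 Hepes/MgCl2 buffer, then reacted at 2 mM ATP with a biotinylated peptide substrate. Phosphorylation detected by TR-FRET (streptavidin-XL665, Tb-cryptate anti-phosphotyrosine) as the 665/620 nm emission ratio.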
# Chain of CSNK1A1 (P48729 whole entry): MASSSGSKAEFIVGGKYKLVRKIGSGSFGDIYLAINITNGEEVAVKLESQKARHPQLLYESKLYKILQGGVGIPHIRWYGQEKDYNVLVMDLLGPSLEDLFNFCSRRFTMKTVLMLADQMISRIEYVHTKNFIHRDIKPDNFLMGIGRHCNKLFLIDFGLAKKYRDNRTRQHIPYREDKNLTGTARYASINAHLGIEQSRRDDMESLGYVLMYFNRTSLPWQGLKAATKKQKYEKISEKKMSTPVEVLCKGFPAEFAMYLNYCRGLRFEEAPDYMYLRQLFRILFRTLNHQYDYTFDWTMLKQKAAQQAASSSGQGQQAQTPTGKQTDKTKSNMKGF
SMILES,IC50 (CSNK1A1) [nM],IC50 (CSNK1D) [nM],IC50 [1] [nM]
"Cn1cc(CC2CC2)c2[nH]c(-c3ccnc(NC(=O)C(CC(F)F)c4ccc(F)cc4)c3)c(-c3ccc(F)cc3)c2c1=O (racemic) [Example 65, N-{4-[7-(cyclopropylmethyl)-3-(4-fluorophenyl)-5-methyl-4-oxo-4,5-dihydro-1H-pyrrolo[3,2-c]pyridin-2-yl]pyridin-2-yl}-4,4-difluoro-2-(4-fluorophenyl)butanamide]",11,6.6,> 20000
"CN1CCc2[nH]c(-c3ccnc(NC(=O)C(CC(F)F)c4ccc(F)cc4)c3)c(-c3ccc(F)cc3F)c2C1=O (racemic) [Example 66, N-{4-[3-(2,4-difluorophenyl)-5-methyl-4-oxo-4,5,6,7-tetrahydro-1H-pyrrolo[3,2-c]pyridin-2-yl]pyridin-2-yl}-4,4-difluoro-2-(4-fluorophenyl)butanamide]",4.4,3.2,> 20000
"CC(C(=O)Nc1cc(-c2[nH]c3c(c2-c2ccc(F)cc2F)C(=O)N(C)CC3)ccn1)c1ccc(F)cc1 (racemic) [Example 69, N-{4-[3-(2,4-difluorophenyl)-5-methyl-4-oxo-4,5,6,7-tetrahydro-1H-pyrrolo[3,2-c]pyridin-2-yl]pyridin-2-yl}-2-(4-fluorophenyl)propanamide]",3.1,2.8,> 20000
"CC(C(=O)Nc1cc(-c2[nH]c3c(c2-c2ccccc2)C(=O)NCC3)ccn1)c1ccc(F)cc1 (racemic) [Example 74, 2-(4-fluorophenyl)-N-[4-(4-oxo-3-phenyl-4,5,6,7-tetrahydro-1H-pyrrolo[3,2-c]pyridin-2-yl)pyridin-2-yl]propanamide]",1.6,3,> 20000
"O=C1NCCc2[nH]c(-c3ccnc(NC(=O)C(CC(F)F)c4ccc(F)cc4)c3)c(-c3ccccc3)c21 (racemic) [Example 75, 4,4-difluoro-2-(4-fluorophenyl)-N-[4-(4-oxo-3-phenyl-4,5,6,7-tetrahydro-1H-pyrrolo[3,2-c]pyridin-2-yl)pyridin-2-yl]butanamide]",2.7,4.5,> 20000
"CN1C(=O)c2c([nH]c(-c3ccnc(NC(=O)C(CC(F)F)c4ccc(F)cc4)c3)c2-c2ccccc2)CC12CC2 (racemic) [Example 80, 4,4-difluoro-2-(4-fluorophenyl)-N-[4-(5′-methyl-4′-oxo-3′-phenyl-1′,4′,5′,7′-tetrahydrospiro-[cyclopropane-1,6′-pyrrolo[3,2-c]pyridin]-2′-yl)pyridin-2-yl]butanamide]",4.7,5.1,> 20000
"CN1C(=O)c2c([nH]c(-c3ccnc(NC(=O)C(CC(F)F)c4ccc(F)cc4)c3)c2-c2ccc(F)cc2)CC12CC2 (racemic) [Example 81, 4,4-difluoro-2-(4-fluorophenyl)-N-{4-[3′-(4-fluorophenyl)-5′-methyl-4′-oxo-1′,4′,5′,7′-tetrahydro-spiro[cyclopropane-1,6′-pyrrolo[3,2-c]pyridin]-2′-yl]pyridin-2-yl}butanamide]",4.6,4.3,> 20000
"Cc1cccc(-c2c(-c3ccnc(NC(=O)C(C)c4ccc(F)cc4)c3)[nH]c3c2C(=O)NC(C)(C)C3)c1 (racemic) [Example 88, N-{4-[6,6-dimethyl-3-(3-methylphenyl)-4-oxo-4,5,6,7-tetrahydro-1H-pyrrolo[3,2-c]pyridin-2-yl]pyridin-2-yl}-2-(4-fluorophenyl)propanamide]",8.6,11,> 20000
"CC(C(=O)Nc1cc(-c2[nH]c3c(c2-c2ccc(Cl)cc2)C(=O)NC(C)(C)C3)ccn1)c1ccc(F)cc1 (racemic) [Example 89, N-{4-[3-(4-chlorophenyl)-6,6-dimethyl-4-oxo-4,5,6,7-tetrahydro-1H-pyrrolo[3,2-c]pyridin-2-yl]pyridin-2-yl}-2-(4-fluorophenyl)propanamide]",6.8,4.3,> 20000
"Cc1ccc(-c2c(-c3ccnc(NC(=O)C(C)c4ccc(F)cc4)c3)[nH]c3c2C(=O)NC(C)(C)C3)cc1 (racemic) [Example 91, N-{4-[6,6-dimethyl-3-(4-methylphenyl)-4-oxo-4,5,6,7-tetrahydro-1H-pyrrolo[3,2-c]pyridin-2-yl]pyridin-2-yl}-2-(4-fluorophenyl)propanamide]",7.7,7.6,> 20000
"CC(C(=O)Nc1cc(-c2[nH]c3c(c2-c2ccc(F)cc2)C(=O)NC(C)(C)C3)ccn1)c1ccc(F)cc1 (racemic) [Example 94, 2-(4-fluorophenyl)-N-{4-[3-(4-fluorophenyl)-6,6-dimethyl-4-oxo-4,5,6,7-tetrahydro-1H-pyrrolo[3,2-c]pyridin-2-yl]pyridin-2-yl}propanamide]",3,3.2,> 20000
"CC(C(=O)Nc1cc(-c2[nH]c3c(c2-c2cccnc2)C(=O)NC(C)(C)C3)ccn1)c1ccc(F)cc1 (racemic) [Example 97, N-{4-[6,6-dimethyl-4-oxo-3-(pyridin-3-yl)-4,5,6,7-tetrahydro-1H-pyrrolo[3,2-c]pyridin-2-yl]pyridin-2-yl}-2-(4-fluorophenyl)propanamide]",8.1,14,> 20000
"CC(C(=O)Nc1cc(-c2[nH]c3ccn(C)c(=O)c3c2-c2ccc(F)cc2)ccn1)c1ccc(F)cc1 (racemic) [Example 100, 2-(4-fluorophenyl)-N-{4-[3-(4-fluorophenyl)-5-methyl-4-oxo-4,5-dihydro-1H-pyrrolo[3,2-c]pyridin-2-yl]pyridin-2-yl}propanamide]",5.9,8.6,> 20000
"CC(C(=O)Nc1cc(-c2[nH]c3ccn(C)c(=O)c3c2-c2ccccc2)ccn1)c1ccc(F)cc1 (racemic) [Example 103, 2-(4-fluorophenyl)-N-[4-(5-methyl-4-oxo-3-phenyl-4,5-dihydro-1H-pyrrolo[3,2-c]pyridin-2-yl)pyridin-2-yl]propanamide]",5,11,> 20000
"CC(C(=O)Nc1cc(-c2[nH]c3ccn(C)c(=O)c3c2-c2cccc(Cl)c2)ccn1)c1ccc(F)cc1 (racemic) [Example 106, N-{4-[3-(3-chlorophenyl)-5-methyl-4-oxo-4,5-dihydro-1H-pyrrolo[3,2-c]pyridin-2-yl]pyridin-2-yl}-2-(4-fluorophenyl)propanamide]",9.2,11,> 20000
"Cn1ccc2[nH]c(-c3ccnc(NC(=O)C(CC(F)F)c4ccc(F)cc4)c3)c(-c3ccc(F)cc3)c2c1=O (racemic) [Example 107, 4,4-difluoro-2-(4-fluorophenyl)-N-{4-[3-(4-fluorophenyl)-5-methyl-4-oxo-4,5-dihydro-1H-pyrrolo[3,2-c]pyridin-2-yl]pyridin-2-yl}butanamide]",3.5,4.4,> 20000
"CC(C(=O)Nc1cc(-c2[nH]c3ccn(C)c(=O)c3c2-c2cccnc2F)ccn1)c1ccc(F)cc1 (racemic) [Example 110, 2-(4-fluorophenyl)-N-{4-[3-(2-fluoropyridin-3-yl)-5-methyl-4-oxo-4,5-dihydro-1H-pyrrolo[3,2-c]pyridin-2-yl]pyridin-2-yl}propanamide]",30,21,> 20000
"Cc1ccccc1-c1c(-c2ccnc(NC(=O)C(C)c3ccc(F)cc3)c2)[nH]c2ccn(C)c(=O)c12 (racemic) [Example 111, 2-(4-fluorophenyl)-N-{4-[5-methyl-3-(2-methylphenyl)-4-oxo-4,5-dihydro-1H-pyrrolo[3,2-c]pyridin-2-yl]pyridin-2-yl}propanamide]",37,22,> 20000
"CC(C(=O)Nc1cc(-c2[nH]c3ccn(C)c(=O)c3c2-c2ccccc2Cl)ccn1)c1ccc(F)cc1 (racemic) [Example 112, N-{4-[3-(2-chlorophenyl)-5-methyl-4-oxo-4,5-dihydro-1H-pyrrolo[3,2-c]pyridin-2-yl]pyridin-2-yl}-2-(4-fluorophenyl)propanamide]",23,14,> 20000
"CC(C(=O)Nc1cc(-c2[nH]c3ccn(C)c(=O)c3c2-c2cccc(O)c2)ccn1)c1ccc(F)cc1 (racemic) [Example 113, 2-(4-fluorophenyl)-N-{4-[3-(3-hydroxyphenyl)-5-methyl-4-oxo-4,5-dihydro-1H-pyrrolo[3,2-c]pyridin-2-yl]pyridin-2-yl}propanamide]",32,33,> 20000
"CC(C(=O)Nc1cc(-c2[nH]c3ccn(C)c(=O)c3c2-c2ccc(F)c(F)c2)ccn1)c1ccc(F)cc1 (racemic) [Example 114, N-{4-[3-(3,4-difluorophenyl)-5-methyl-4-oxo-4,5-dihydro-1H-pyrrolo[3,2-c]pyridin-2-yl]pyridin-2-yl}-2-(4-fluorophenyl)propanamide]",4.8,6.8,> 20000
"CC(C(=O)Nc1cc(-c2[nH]c3ccn(C)c(=O)c3c2-c2ccoc2)ccn1)c1ccc(F)cc1 (racemic) [Example 115, 2-(4-fluorophenyl)-N-{4-[3-(3-furyl)-5-methyl-4-oxo-4,5-dihydro-1H-pyrrolo[3,2-c]pyridin-2-yl]pyridin-2-yl}propanamide]",2.2,5.6,> 20000
